Data set [1] addresses Histamine H1 receptor, HRH1 (h) (Homo sapiens, UniProt P35367). Nature of the data set: IPP HRH1 binding (antagonist radioligand). Particulars: control pyrilamine.
Data set [2] concerns the target Mu-type opioid receptor, OPRM1 (h) (Homo sapiens, UniProt P35372). Particulars: control DAMGO.
The target in data set [3] is Sodium-dependent dopamine transporter, SLC6A3 (h) (Homo sapiens, UniProt Q01959). To be noted: control BTCP.
In the next data set the test system is dog. To be noted: ref ToxRefDB/Paul-Friedman et al. (2020)/regulatory opinions, cited from earlier work.
Data set [4] in a line: Assignment of risk classifications to benchmark chemical-exposure scenarios. To be noted: for risk: from table S1.
Data set [5] addresses T1, Progesterone receptor, PGR (h) (Homo sapiens, UniProt P06401).
T1 sequence (P06401 1-933): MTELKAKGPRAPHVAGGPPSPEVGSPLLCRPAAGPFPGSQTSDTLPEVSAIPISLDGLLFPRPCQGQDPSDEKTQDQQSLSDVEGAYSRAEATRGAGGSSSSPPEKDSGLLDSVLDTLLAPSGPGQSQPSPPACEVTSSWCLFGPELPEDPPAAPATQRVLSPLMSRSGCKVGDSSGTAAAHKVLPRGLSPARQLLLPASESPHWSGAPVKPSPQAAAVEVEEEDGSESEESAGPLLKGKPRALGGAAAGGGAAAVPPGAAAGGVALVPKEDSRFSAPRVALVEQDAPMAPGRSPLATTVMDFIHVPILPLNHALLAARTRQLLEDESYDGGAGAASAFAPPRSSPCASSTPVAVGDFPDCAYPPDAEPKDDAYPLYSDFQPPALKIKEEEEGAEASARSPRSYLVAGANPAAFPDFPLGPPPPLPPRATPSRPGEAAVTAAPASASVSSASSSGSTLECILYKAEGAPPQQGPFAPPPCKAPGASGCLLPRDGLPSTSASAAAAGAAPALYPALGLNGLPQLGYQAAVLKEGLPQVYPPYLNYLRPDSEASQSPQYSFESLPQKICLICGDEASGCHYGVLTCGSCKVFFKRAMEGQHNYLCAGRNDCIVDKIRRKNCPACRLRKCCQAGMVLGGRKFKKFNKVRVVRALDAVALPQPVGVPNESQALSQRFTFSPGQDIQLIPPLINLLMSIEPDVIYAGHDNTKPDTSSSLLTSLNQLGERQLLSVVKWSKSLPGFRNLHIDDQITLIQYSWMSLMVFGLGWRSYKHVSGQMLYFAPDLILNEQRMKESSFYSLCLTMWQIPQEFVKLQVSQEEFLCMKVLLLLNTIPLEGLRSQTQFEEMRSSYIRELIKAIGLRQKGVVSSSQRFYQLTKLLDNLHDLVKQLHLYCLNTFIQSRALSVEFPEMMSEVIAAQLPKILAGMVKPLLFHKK
Nature of the data set: IPP PGR coactivator recruitment (antagonist). The data set is classed as biochemical. To be noted: ligand progesterone.

The conditions of data set [6]: cited from earlier work.
Data set [7] addresses T1, Progesterone receptor, PGR (h). The experiment in a line: biochemical. The data set is classed as biochemical. Particulars: agonist, progesterone for control.
In data set [8] the target is T2, Peroxisome proliferator-activated receptor alpha, PPARA (h) (Homo sapiens, UniProt Q07869).
T2 sequence (Q07869 1-468): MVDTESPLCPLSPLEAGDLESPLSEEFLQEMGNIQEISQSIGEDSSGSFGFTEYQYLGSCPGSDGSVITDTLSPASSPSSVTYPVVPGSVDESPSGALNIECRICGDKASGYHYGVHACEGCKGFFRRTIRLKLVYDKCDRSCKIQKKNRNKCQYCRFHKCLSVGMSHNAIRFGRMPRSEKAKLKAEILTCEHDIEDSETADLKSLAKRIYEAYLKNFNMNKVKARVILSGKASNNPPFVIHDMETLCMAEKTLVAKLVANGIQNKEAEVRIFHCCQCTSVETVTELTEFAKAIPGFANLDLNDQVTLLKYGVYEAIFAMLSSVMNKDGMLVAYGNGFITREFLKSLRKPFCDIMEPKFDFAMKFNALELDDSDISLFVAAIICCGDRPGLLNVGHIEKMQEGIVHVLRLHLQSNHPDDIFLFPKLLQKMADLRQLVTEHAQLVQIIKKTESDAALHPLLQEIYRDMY
Nature of the data set: IPP PPARA coactivator recruitment (antagonist). Type of data set: biochemical. To be noted: 10 uM; antagonist; ligand GW 7647.

Data set [9] has as its target T3, Peroxisome proliferator-activated receptor gamma, PPARG (h) (Homo sapiens, UniProt P37231).
T3 sequence (P37231 1-505): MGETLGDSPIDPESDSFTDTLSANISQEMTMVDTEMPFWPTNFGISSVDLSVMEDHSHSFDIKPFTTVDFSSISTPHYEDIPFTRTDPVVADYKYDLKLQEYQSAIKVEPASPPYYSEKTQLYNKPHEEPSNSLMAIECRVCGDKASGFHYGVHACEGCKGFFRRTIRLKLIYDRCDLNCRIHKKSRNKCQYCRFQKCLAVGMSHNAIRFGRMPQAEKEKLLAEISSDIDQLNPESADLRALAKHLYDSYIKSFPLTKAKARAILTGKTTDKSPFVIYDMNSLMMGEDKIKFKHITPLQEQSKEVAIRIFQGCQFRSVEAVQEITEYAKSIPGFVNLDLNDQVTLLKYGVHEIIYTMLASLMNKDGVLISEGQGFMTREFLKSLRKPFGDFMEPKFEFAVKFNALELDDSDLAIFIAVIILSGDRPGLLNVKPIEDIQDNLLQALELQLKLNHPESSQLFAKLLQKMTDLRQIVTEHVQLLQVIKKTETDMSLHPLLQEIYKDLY
Nature of the data set: IPP PPARG coactivator recruitment (antagonist). To be noted: 10 uM, ligand rosiglitazone. The data set is classed as biochemical.

In data set [10] the target is T4, Thyroid hormone receptor beta, THRB (h) (Homo sapiens, UniProt P10828).
T4 construct: purchased Eurofins Cerep (SafetyScreen44-based IPP panel)
The experiment in a line: IPP THRB coactivator recruitment (agonist). To be noted: 10 uM, T3. Type of data set: biochemical.

Setting [11] is: human, Oral 100 mg, Tablet, 27 healty male, Fasted, validation, ref Shank, R.P. et al. (2005) Epilepsy Research 63:103-112.
[12] abbreviates: human, Oral 200 mg, Tablet, 25 healty male, Fasted, calibration, ref Shank, R.P. et al. (2005) Epilepsy Research 63:103-112.
Setting [13] is: human, Oral 400 mg, Tablet, 26 healty male, Fasted, validation, ref Shank, R.P. et al. (2005) Epilepsy Research 63:103-112.
Where [14] appears, read: Oral 500 mg tablet, Preparation A: non-shellaced core, sugar coated, fasted, 5 healthy male, calibration, ref Hart 1975.
[15] abbreviates: Oral 500 mg tablet, Preparation B: shellaced core, sugar coated, fasted, 5 healthy male, calibration, ref Hart 1975.
Where [16] appears, read: Oral 500 mg tablet, Preparation C: film-coated, fasted, 5 healthy male, calibration, ref Hart 1975.
[17] abbreviates: human, Oral 500 mg repeat every 12 h, 2 x 250 mg tablets (Terramycin), 4 healthy male, Fasted, measured data for day 1 and day 7, validation, ref GREEN, BROWN & CALVERT, European Journal of Clinical Pharmacology (1979) 10:245-250, cited in EPA (1987).
Setting [18] is: human, Oral 500 mg, Preparation D: tablet, film-coated (Oxytetracycline hydrochloride), 5 healthy male, Fasted, calibration, ref HART, Br. J. clin. Pharmac. (1975), 2, 277-280.
Where [19] appears, read: human, Oral 500 mg, Preparation E: Capsule (Oxytetracycline hydrochloride), 5 healthy male, Fasted, calibration, ref HART, Br. J. clin. Pharmac. (1975), 2, 277-280.

Read-outs that look alike come from different tables or passages of the source.

Sequence of Mu-type opioid receptor, OPRM1 (h) (P35372 whole entry): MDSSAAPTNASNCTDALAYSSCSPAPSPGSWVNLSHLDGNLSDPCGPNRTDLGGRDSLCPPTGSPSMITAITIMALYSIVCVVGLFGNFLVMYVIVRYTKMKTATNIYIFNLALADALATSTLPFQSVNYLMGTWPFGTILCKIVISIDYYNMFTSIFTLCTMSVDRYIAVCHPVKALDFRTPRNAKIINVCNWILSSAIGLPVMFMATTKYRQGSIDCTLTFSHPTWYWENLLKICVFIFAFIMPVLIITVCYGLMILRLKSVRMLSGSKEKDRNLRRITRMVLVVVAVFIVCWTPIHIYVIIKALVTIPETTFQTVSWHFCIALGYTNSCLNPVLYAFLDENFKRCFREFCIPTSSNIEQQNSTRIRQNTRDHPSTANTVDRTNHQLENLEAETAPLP
Sequence of Histamine H1 receptor, HRH1 (h) (P35367 whole entry): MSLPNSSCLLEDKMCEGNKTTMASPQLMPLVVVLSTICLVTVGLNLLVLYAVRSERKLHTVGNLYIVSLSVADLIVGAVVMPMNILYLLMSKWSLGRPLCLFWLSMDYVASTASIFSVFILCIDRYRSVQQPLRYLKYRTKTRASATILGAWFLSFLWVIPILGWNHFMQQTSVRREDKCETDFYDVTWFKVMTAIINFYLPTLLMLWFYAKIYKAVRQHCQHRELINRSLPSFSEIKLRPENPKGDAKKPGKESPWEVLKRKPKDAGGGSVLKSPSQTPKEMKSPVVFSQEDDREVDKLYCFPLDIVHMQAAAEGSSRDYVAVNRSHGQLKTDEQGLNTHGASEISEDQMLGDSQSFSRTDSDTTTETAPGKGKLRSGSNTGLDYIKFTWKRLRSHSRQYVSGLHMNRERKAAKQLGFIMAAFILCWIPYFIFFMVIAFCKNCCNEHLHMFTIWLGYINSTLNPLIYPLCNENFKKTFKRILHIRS
Sequence of Sodium-dependent dopamine transporter, SLC6A3 (h) (Q01959 whole entry): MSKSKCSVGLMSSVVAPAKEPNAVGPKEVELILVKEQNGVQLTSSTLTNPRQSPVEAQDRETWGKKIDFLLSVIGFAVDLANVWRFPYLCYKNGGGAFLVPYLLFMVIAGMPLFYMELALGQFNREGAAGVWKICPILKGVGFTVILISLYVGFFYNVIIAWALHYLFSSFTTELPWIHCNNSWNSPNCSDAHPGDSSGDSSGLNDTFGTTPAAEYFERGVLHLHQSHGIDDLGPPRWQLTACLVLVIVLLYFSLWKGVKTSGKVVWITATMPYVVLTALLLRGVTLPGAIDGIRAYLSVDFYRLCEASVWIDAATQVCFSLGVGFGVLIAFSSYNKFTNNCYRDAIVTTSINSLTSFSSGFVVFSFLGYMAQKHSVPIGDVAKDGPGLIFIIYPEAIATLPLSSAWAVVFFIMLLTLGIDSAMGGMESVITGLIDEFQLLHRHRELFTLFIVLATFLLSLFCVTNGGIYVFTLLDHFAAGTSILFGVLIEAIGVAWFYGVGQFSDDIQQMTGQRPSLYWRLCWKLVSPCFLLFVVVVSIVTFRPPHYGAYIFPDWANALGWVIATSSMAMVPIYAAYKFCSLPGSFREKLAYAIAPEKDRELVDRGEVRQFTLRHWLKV
T4 sequence (P10828 whole entry): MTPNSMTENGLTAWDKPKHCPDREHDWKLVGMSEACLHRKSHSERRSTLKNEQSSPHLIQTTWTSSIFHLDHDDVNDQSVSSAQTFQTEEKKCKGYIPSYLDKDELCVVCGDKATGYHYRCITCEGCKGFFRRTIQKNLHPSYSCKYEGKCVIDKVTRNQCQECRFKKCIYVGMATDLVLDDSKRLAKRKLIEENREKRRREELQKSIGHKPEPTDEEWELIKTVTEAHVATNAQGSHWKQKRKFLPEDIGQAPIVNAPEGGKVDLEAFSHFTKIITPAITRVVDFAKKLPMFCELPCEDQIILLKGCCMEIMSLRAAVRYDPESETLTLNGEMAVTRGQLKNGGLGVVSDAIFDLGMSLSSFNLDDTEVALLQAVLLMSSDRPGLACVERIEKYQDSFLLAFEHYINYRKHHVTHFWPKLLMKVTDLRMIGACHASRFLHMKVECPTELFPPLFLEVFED

On to `CCOP(=S)(OCC)Oc1nc(Cl)c(Cl)cc1Cl` [Chlorpyrifos, O,O-Diethyl O-(3,5,6-trichloropyridin-2-yl) phosphorothioate], for which the Specific binding in [1] (IPP screening at 10 uM) turned out to be 17.6%; in [2] (IPP screening at 10 uM), 29.9%; in data set [3] (IPP screening at 10 uM) it was 34.7%. For the same compound, the “PoD (NOAEL)” value with dog (2 years, inhibition of plasma and erythrocyte ChE) is 0.01 mg/kg bw/day. This compound also yielded a risk in data set [4] (Oral, 0.1 mg/kg, Tablet, Exp3) of 1.

Consider `CC(C)(C)c1ccc(CCOc2ncnc3ccccc23)cc1` [Fenazaquin, 4-[2-(4-tert-Butylphenyl)ethoxy]quinazoline], for which the Specific binding amounted to 37.0% in data set [1] (IPP screening at 10 uM), 16.1% in [2] (IPP screening at 10 uM) and 65.2% in data set [3] (IPP screening at 10 uM). In addition, the “Risk Classification” value in data set [4] (Oral, residue, 0.005 mg/kg bw/day) was “Low risk”. Moreover, the risk in data set [4] (Oral, 17% ADI 0.005 mg/kg bw/day, Food residue, Exp2) was determined as 0; in data set [4] (Oral, ADI 0.005 mg/kg bw/day, Food residue, Exp3), 0.

For the compound `CC1(C)O[C@@H]2[C@@H](CO[C@@]3(COS(N)(=O)=O)OC(C)(C)O[C@@H]23)O1` [Topiramate, [(3aS,5aR,8aR,8bS)-2,2,7,7-Tetramethyltetrahydro-2H,3aH,7H-bis[1,3]dioxolo[4,5-b:4',5'-d]pyran-3a-yl]methyl sulfamate (non-preferred name)], the “IPP screening %, Coactivator recruitment” value in data set [5] (100 uM) was 2.2%; in data set [7] (100 uM) it was 0.5%. Also, the Specific binding in data set [1] (IPP screening at 100 uM) is given as 5.8%; in data set [2] (IPP screening at 100 uM) it was 0.9%; in [3] (IPP screening at 100 uM), 0.1%. In addition, the results for the “Reported AUC0-t” value in data set [6] (setting [11]), in data set [6] (setting [12]) and in data set [6] (setting [13]) were 50.54 µg·h/mL, 145 µg·h/mL and 229 µg·h/mL, respectively. The Reported cmax was 1.3281 µg/mL in [6] (setting [11]), 3.1578 µg/mL in data set [6] (setting [12]) and 6.5205 µg/mL in data set [6] (setting [13]). Also, the Reported tmax is 4 h in [6] (setting [11]), 3 h in data set [6] (setting [12]) and 2 h in data set [6] (setting [13]). In data set [6] (ref not given), the plasma half-life entry was “over 20 h”. For the same compound, the “Risk Classification” value in data set [4] (Oral 50 mg/day) and in data set [4] (Oral 500 mg/day) was “High risk” in each case. In addition, the risk worked out at 1 in data set [4] (Oral, High therapeutic, 500mg/day, Tablet, Exp1) and 1 in [4] (Oral, Low therapeutic, 50mg/day, Tablet, Exp2).

On to “(4S,4aR,5S,5aR,6S,12aS)-4-(Dimethylamino)-3,5,6,10,12,12a-hexahydroxy-6-methyl-1,11-dioxo-1,4,4a,5,5a,6,11,12a-octahydrotetracene-2-carboxamide--hydrogen chloride (1/1) [Oxytetracycline hydrochloride]”, for which the Specific binding in data set [2] (IPP screening at 10 uM) is listed as 3.3%; in [3] (IPP screening at 10 uM), -0.9%. Besides, the “PoD (NOAEL)” value with dog (12 months (dog), 24 months (rat)) was 50 mg/kg bw/day. Further, the “Reported AUC0-t” value in data set [6] (setting [14]) was 5.731 µg·h/mL; in data set [6] (setting [15]) it was 4.455 µg·h/mL; in data set [6] (setting [16]) it was 7.198 µg·h/mL; in [6] (setting [17]), 79.42 µg·h/mL; in [6] (setting [18]), 8.279 µg·h/mL; in data set [6] (setting [19]), 7.8 µg·h/mL. Further, the Reported cmax is 1.2 µg/mL in data set [6] (setting [14]); 0.88 µg/mL in data set [6] (setting [15]); 1.43 µg/mL in [6] (setting [16]); 2.25 µg/mL in [6] (setting [17]); 1.51 µg/mL in [6] (setting [18]); 1.45 µg/mL in data set [6] (setting [19]). Besides, the Reported tmax was 2 h in data set [6] (setting [14]); 3 h in [6] (setting [15]); 3 h in [6] (setting [16]); 74 h in data set [6] (setting [17]); 2 h in data set [6] (setting [18]); 3 h in data set [6] (setting [19]). The entries for the “IPP screening %, Coactivator recruitment” value in [8], in [9] and in data set [10] were 42.3%, 31.2% and -3.0%, respectively.

Take “mixture of 2- and 3-tert-butyl-4-methoxyphenol [Butylated Hydroxyanisole]”: the “IPP screening %, Coactivator recruitment” value in data set [5] (10 uM) came to 4.0%; in [8], 4.4%; in data set [9], 1.4%; in data set [10] it was 1.0%; in [7] (10 uM), 0.1%. Besides, the figures for the Specific binding in data set [1] (IPP screening at 10 uM), in data set [2] (IPP screening at 10 uM) and in data set [3] (IPP screening at 10 uM) were -2.1%, 7.1% and 20.6%, respectively.

These data come from PMC11879040, “Advancing systemic toxicity risk assessment: Evaluation of a NAM-based toolbox approach” (Toxicological Sciences, 2024).
